Reference: PMC8507260, “A2E-induced inflammation and angiogenesis in RPE cells in vitro are modulated by PPAR-α, -β/δ, -γ, and RXR antagonists and by norbixin” (Aging (Albany NY), 2021)

Assays:
PPAR = assay: Endogenous PPAR transactivation, luciferase reporter in primary porcine RPE cells; assay type: cell-based; details: A2E 20 μM; for effect on endogenous PPAR transactivation induced by A2E: MK886 1 μM, GSK3787 1 μM, T007907 10 μM, separately or as mixture
Method: (§1) Pig eyes were obtained from a local slaughterhouse and transported to the laboratory in ice-cold Ringer solution. After removal of the anterior segment of the eye, the vitreous and neural retina was separated from the RPE and removed. The eyecup was washed twice with phosphate buffer saline (PBS), filled with trypsin (0.25% in PBS) and incubated at 37°C for 1.5 h. RPE cells were harvested by gently pipetting, centrifuged to remove trypsin and re-suspended in Dulbecco’s Modified Eagle Medium (DMEM) supplemented with 20% (v/v) foetal-calf serum (DMEM20%FCS) and 0.1% gentamycin. Cells were seeded into 60 mm diameter Petri dishes, cultured in an atmosphere of 5% CO2/95% air at 37°C, and supplied with fresh medium after 24 hours and 4 days in vitro. For experiments aimed at measuring mRNA or protein expression in RPE, cells were trypsinized after one week in culture and transferred to 24-well or 6-well plates at a density of 1.5 × 10^5 cells/cm^2 in DMEM2%FCS. Norbixin or agonists were added to the medium 24 h after seeding, and antagonists were added to the medium 24 h later. A2E treatment was performed during 19 h before cellular sample preparation. All the drugs used in these experiments were prepared as stock solutions in DMSO.
(§2) After one week in culture, cells were trypsinized and transferred to a 96-well plate at a density of 6 × 10^4 cells/cm^2 in DMEM2%FCS. The next day, cells were transfected using the Cignal Reporter Assay Kits for PPAR, RXR, AP-1 and NF-κB, according to the manufacturer’s specifications. To measure the specific activation of PPAR isoforms, cells were also co-transfected with PPAR-α, PPAR-β/δ or PPAR-γ expression vectors. Transfection was performed with Lipofectamine and Plus Reagent in serum-free medium. 3 h after the transfection, the medium was replaced and treatments with the molecules to assay were performed. Luciferase activity was measured the next day using the Dual-Luciferase Reporter Assay System. The measurements were performed with a luminometer (Infinite M1000 from Tecan, Mannedorf, Switzerland). Firefly: Renilla activity ratios were calculated for each condition and ratios from transcription factor-responsive reporter transfections were divided by ratios from negative control transfections to obtain relative luciferase unit, as described by the manufacturer. At least 3 independent transfections were performed in triplicate for each condition.

IL-8 = IL-8 mRNA expression by quantitative RT-PCR in porcine RPE cells; assay type: cell-based; details: A2E 20 μM; MK886 1 μM, GSK3787 1 μM, T007907 10 μM, HX531 5 μM
Method: as §1
(§3) Total RNA was extracted using the NucleoSpin® RNA kit according to manufacturer’s instructions. RT of 500 ng of RNA was performed using the SuperScript III Reverse Transcriptase following the manufacturer’s instructions. Five ng of cDNA were amplified using the SYBR GREEN real-time PCR method. PCR primers for target genes and housekeeping gene GAPDH were designed using Primer3Plus Bioinformatic software (Table 2). The RT-PCR using the StepOne Plus (Life Technologies, Carlsbad, CA, USA) consisted of incubation at 50°C for 5 min followed by 40 cycles of 95°C for 15 s and of 60°C for 1 min. The reaction was completed by a melt curve stage at 95°C for 15 s, 60°C for 1 min, 95°C for 15 s and a final step at 60°C for 15 s. The relative mRNA expression was calculated using the comparative threshold method (Ct-method) with GAPDH for normalization. All experimental conditions were processed in triplicate and each experiment was done at least 3 times.

IL-6 = IL-6 mRNA expression by quantitative RT-PCR in porcine RPE cells; assay type: cell-based; details: T007907 10 μM; for reduction of IL-6 mRNA expression induced by A2E: NBX 20 μM with A2E 30 μM, MK886 1 μM, GSK3787 1 μM, HX531 5 μM with A2E 20 μM
Method: as §1, §3

PPAR-α [1] = assay: Transactivation of over-expressed PPAR-α, luciferase reporter in porcine RPE cells; assay type: cell-based, pig; details: vs DMSO control; A2E 20 μM; NBX increasing concentrations
Method: First, we evaluated the binding profile of A2E to all three isoforms of PPAR. […] Then the effects of A2E on the endogenous PPAR transactivation in porcine RPE cells were investigated by means of a luciferase assay. […] The level of transactivation of PPAR-α, -β/δ, or -γ isoforms by A2E was determined by co-transfection of porcine RPE cells with a plasmid expressing each of the full-length PPAR isoforms and a plasmid expressing luciferase under the control of the PPAR response element. […]. All usual chemicals, primers, and HX531 were from Sigma (St. Louis, MO, USA). Reagents for cell culture, transfection and quantitative RT-PCR were from Thermo Fisher Scientific (Waltham, MA, USA). RNA extraction NucleoSpin® RNA kit was from Macherey Nagel (Düren, Germany). ECL prime and PVDF membrane were from Amersham GE Healthcare (Buckinghamshire, UK). Primary antibodies against the following proteins were used: GAPDH (Santa Cruz Biotechnology, Inc, Dallas, TX, USA); pAKT, AKT, pERK and ERK (Cell Signaling, Danvers, MA, USA). Secondary antibodies were from Jackson ImmunoResearch (Cambridgeshire, UK). […] Cignal Pathway Reporter Assay Kits were from QIAGEN (Frederick, MD, USA). The Dual-Luciferase Reporter Assay System was purchased from Promega (Madison, WI, USA). pcDNA 3.1 (+)-PPARα and pcDNA 3.1 (+)-PPARβ/δ (pig sequence) were purchased from Genscript (Piscataway, NJ, USA). pCMV6-XL4-PPARγ (human sequence) was purchased from Origene (Rockville, MD, USA).
as §2

PPAR-α [2] = biological target: T1, PPAR-α (Homo sapiens, UniProt Q07869); details: stated without reference; cited from earlier work
T1 construct: Eurofins Cerep (contract laboratory that ran the assay)
T1 sequence (Q07869 1-468): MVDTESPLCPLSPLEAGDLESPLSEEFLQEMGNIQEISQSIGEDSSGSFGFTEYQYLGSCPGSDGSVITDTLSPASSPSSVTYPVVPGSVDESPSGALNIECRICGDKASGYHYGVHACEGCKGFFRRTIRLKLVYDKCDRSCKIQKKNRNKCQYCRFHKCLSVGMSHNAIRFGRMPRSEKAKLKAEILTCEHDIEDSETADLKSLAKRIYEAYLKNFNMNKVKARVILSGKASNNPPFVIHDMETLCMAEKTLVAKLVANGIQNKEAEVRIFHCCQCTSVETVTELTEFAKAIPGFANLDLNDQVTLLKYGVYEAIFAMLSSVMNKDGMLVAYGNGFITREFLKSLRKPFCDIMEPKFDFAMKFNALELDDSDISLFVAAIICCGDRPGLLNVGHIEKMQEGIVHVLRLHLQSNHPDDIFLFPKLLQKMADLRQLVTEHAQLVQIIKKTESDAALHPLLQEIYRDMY

VEGF = VEGF mRNA expression by quantitative RT-PCR in porcine RPE cells; assay type: cell-based; details: HX531 5 μM + A2E 20 μM
Method: as §1
as §3, with “All experimental conditions were processed in triplicate and each experiment was done at least 3 times.” left out

AP-1 = AP-1 transactivation, luciferase reporter in porcine RPE cells; assay type: cell-based; details: A2E 20 μM; NBX 20 μM, HX531 5 μM
Method: as §1
as §2, with “Transfection was performed with Lipofectamine and Plus Reagent in serum-free medium. 3 h after the transfection, the medium was replaced and treatments with the molecules to assay were performed.” left out, “The measurements were performed with a luminometer (Infinite M1000 from Tecan, Mannedorf, Switzerland).” left out, “At least 3 independent transfections were performed in triplicate for each condition.” left out

NF-κB = NF-κB transactivation, luciferase reporter in porcine RPE cells; assay type: cell-based; details: A2E 20 μM, T007907 10 μM; for inhibition of NF-κB transactivation induced by A2E: NBX 20 μM, HX531 5 μM
Method: as §1, §2

RXR = assay: Endogenous RXR transactivation, luciferase reporter in porcine RPE cells; assay type: cell-based; details: NBX 20 μM
Method: as §1, §2

Compound	effect on endogenous PPAR transactivation induced by A2E (PPAR)	inhibition of IL-8 mRNA expression induced by A2E (IL-8)	reduction of IL-6 mRNA expression induced by A2E (IL-6)	inhibition of NF-κB transactivation induced by A2E (NF-κB)	further results
O=C(NCCS(=O)(=O)c1ccc(C(F)(F)F)cn1)c1ccc(Cl)cc1 [GSK3787]	did not significantly inhibit	35%	45%	–	–
CCCCCCCN(CCc1ccc(SC(C)(C)C(=O)O)cc1)C(=O)Nc1ccc(F)cc1F [GW9578]	–	–	–	–	transactivation of over-expressed PPAR-α by the compound alone (PPAR-α [1]): induced transactivation; binding affinity to PPAR-α (PPAR-α [2]): nanomolar range
CN1c2ccc([N+](=O)[O-])cc2N=C(c2ccc(C(=O)O)cc2)c2cc3c(cc21)C(C)(C)CCC3(C)C [HX531]	–	99.6%	88.6%	100%	lowering of VEGF mRNA expression induced by A2E (VEGF): 76.8%; inhibition of endogenous PPAR transactivation induced by A2E (PPAR; NBX 20 μM, HX531 5 μM (HX531 effect not significant)): 30%; inhibition of AP-1 transactivation induced by A2E (AP-1): 100%; inhibition of RXR transactivation induced by A2E (RXR; A2E 20 μM, HX531 5 μM): 50.1%
CC1(C)CCC(C)(C)c2cc3c(cc21)Sc1ccccc1N=C3c1ccc(C(=O)O)cc1 [HX630]	–	–	–	–	transactivation of RXRs by the compound alone (RXR; HX630 5 μM, vs DMSO control): transactivation induced by HX630
CC(C)c1ccc2c(c1)c(SC(C)(C)C)c(CC(C)(C)C(=O)O)n2Cc1ccc(Cl)cc1 [MK886]	did not significantly inhibit	37%	58.7%	–	–
O=C(Nc1ccncc1)c1cc([N+](=O)[O-])ccc1Cl [T007907]	did not significantly inhibit	45.9%	69.6%	100%	effect of the compound alone on NF-κB transactivation (NF-κB; vs DMSO control): inhibited; effect of the compound alone on IL-6 mRNA expression (IL-6; vs DMSO control): enhanced
